Tests used:
Format in all cases: biochemical
[1] = target: T1, cathepsin K activated from recombinant human procathepsin K (Homo sapiens, UniProt P43235); test: Cathepsin K kinetic fluorescence enzyme inhibition assay; details: selectivity ratio versus calpain I
T1 construct: purchased Calbiochem 342001; host or cells: E. coli
T1 sequence (P43235 115-329): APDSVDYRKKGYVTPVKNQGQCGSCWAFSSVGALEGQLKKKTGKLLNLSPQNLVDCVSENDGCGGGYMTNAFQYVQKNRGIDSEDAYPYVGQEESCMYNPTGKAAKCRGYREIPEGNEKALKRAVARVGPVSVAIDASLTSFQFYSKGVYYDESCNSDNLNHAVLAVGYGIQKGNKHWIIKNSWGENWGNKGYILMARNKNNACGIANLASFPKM

[2] = target: T2, calpain-I isolated from human erythrocytes (Homo sapiens, UniProt P07384); test: Calpain I kinetic fluorescence enzyme inhibition assay; details: apparent Ki from IC50 by Cheng-Prussoff; average of 2 to 4 dose-effect plots
T2 construct: calpain-I—isolated from human erythrocytes; purchased Calbiochem 208713; host or cells: human erythrocytes (tissue isolate)
T2 sequence (P07384 1-714): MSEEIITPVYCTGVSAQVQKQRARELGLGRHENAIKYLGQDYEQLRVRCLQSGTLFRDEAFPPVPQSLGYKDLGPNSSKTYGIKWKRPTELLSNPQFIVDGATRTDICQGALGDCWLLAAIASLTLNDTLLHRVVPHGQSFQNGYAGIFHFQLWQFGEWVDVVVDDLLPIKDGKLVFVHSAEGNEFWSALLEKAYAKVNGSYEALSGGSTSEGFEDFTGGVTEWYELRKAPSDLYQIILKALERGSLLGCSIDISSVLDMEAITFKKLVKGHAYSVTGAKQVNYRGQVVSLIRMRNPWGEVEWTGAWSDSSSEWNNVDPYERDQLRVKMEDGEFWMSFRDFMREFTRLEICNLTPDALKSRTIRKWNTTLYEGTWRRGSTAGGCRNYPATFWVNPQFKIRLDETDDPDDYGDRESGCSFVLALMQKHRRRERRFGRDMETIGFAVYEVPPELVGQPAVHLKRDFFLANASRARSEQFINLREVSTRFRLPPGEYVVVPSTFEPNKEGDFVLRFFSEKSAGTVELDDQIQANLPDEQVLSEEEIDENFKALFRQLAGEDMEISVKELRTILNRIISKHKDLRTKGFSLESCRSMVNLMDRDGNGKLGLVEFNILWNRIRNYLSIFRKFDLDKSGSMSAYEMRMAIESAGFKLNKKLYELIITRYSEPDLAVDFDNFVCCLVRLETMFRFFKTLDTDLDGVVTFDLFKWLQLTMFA
T2 sequence (P04632 1-268 partner): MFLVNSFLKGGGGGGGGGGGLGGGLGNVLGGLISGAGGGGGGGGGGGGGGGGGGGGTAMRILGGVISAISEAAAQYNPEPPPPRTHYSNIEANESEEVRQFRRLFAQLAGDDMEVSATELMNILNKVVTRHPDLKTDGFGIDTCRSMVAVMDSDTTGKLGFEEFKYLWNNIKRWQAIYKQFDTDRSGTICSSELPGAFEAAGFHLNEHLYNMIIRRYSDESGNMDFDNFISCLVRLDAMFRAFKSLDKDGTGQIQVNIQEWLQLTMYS

[3] = target: T3, recombinant human cathepsin S (Homo sapiens, UniProt P25774); test: Cathepsin S kinetic fluorescence enzyme inhibition assay; details: selectivity ratio versus calpain I
T3 construct: purchased Calbiochem 219343; host or cells: E. coli
T3 sequence (P25774 115-331): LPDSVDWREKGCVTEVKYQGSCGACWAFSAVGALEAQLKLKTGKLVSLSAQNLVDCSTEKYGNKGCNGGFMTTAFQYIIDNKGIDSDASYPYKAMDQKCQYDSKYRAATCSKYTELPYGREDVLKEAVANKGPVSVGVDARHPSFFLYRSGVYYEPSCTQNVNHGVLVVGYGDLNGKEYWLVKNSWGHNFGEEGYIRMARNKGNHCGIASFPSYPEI
How it was run: (§1)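 Cathepsin B (0.25 nM, human liver) with 100 μM Z-Phe-Arg-AMC; L (1 nM, human liver) with 2 μM Z-Phe-Arg-AMC; S (0.5 nM, recombinant) with 20 μM Z-Val-Val-Arg-AMC. pH 6.0 MES buffer, 2.5 mM L-cysteine, room temperature. Kinetic fluorescence (ex 390/em 460 nm); apparent Ki from IC50 by Cheng-Prusoff.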

[4] = target: T4, cathepsin L isolated from human liver (Homo sapiens, UniProt P07711); test: Cathepsin L kinetic fluorescence enzyme inhibition assay; details: selectivity ratio versus calpain I
T4 construct: cathepsin L—isolated from human liver; purchased Calbiochem 219402; host or cells: human liver (tissue isolate)
T4 sequence (P07711 114-333): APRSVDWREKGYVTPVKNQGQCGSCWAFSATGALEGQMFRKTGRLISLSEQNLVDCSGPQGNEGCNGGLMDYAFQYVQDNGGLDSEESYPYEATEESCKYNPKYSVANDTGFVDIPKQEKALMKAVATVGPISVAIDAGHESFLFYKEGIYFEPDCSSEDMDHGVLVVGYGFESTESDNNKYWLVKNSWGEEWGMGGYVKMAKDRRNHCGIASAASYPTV
How it was run: as §1

[5] = target: T5, cathepsin B isolated from human liver (Homo sapiens, UniProt P07858); test: Cathepsin B kinetic fluorescence enzyme inhibition assay; details: selectivity ratio versus calpain I
T5 construct: cathepsin B—isolated from human liver; purchased Calbiochem 219362; host or cells: human liver (tissue isolate)
How it was run: as §1

Row | Compound | Sel cat. K (Ki(cathepsin K)/Ki(calpain) ratio) [1] | Ki [2] | Sel cat. S (Ki(cathepsin S)/Ki(calpain) ratio) [3] | Sel cat. L (Ki(cathepsin L)/Ki(calpain) ratio) [4] | Sel cat. B (Ki(cathepsin B)/Ki(calpain) ratio) [5]
1 | CC(C)c1ccc(-c2ccn(-c3ncccc3C(=O)NC(Cc3ccccc3)C(=O)C(N)=O)n2)cc1 (stereo not shown) [Example 87, N-[3-Amino-2,3-dioxo-1-(phenylmethyl)propyl]-2-{3-[4-(1-methylethyl)phenyl]-1H-pyrazol-1-yl}pyridine-3-carboxamide] | ++ (Ki(cathepsin K)/Ki(calpain) ratio of ≧30) | ≤ 40 nM | ++ (Ki(cathepsin S)/Ki(calpain) ratio of ≧100) | ++ (Ki(cathepsin L)/Ki(calpain) ratio of ≧50) | ++ (Ki(cathepsin B)/Ki(calpain) ratio of ≧30)
2 | COc1c(C)cc(C)cc1-c1ccn(-c2ncccc2C(=O)NC(Cc2ccccc2)C(=O)C(N)=O)n1 (stereo not shown) [Example 121, N-[3-Amino-2,3-dioxo-1-(phenylmethyl)propyl]-2-{3-[3,5-dimethyl-2-(methyloxy)phenyl]-1H-pyrazol-1-yl}pyridine-3-carboxamide] | ++ (Ki(cathepsin K)/Ki(calpain) ratio of ≧30) | ≤ 40 nM | ++ (Ki(cathepsin S)/Ki(calpain) ratio of ≧100) | ++ (Ki(cathepsin L)/Ki(calpain) ratio of ≧50) | ++ (Ki(cathepsin B)/Ki(calpain) ratio of ≧30)
3 | COc1cc(Cl)ccc1-c1ccn(-c2ncccc2C(=O)NC(Cc2ccccc2)C(=O)C(N)=O)n1 (stereo not shown) [Example 139, N-[3-Amino-2,3-dioxo-1-(phenylmethyl)propyl]-2-{3-[4-chloro-2-(methyloxy)phenyl]-1H-pyrazol-1-yl}pyridine-3-carboxamide] | ++ (Ki(cathepsin K)/Ki(calpain) ratio of ≧30) | 40 to 100 nM | ++ (Ki(cathepsin S)/Ki(calpain) ratio of ≧100) | ++ (Ki(cathepsin L)/Ki(calpain) ratio of ≧50) | + (10≦Ki(cathepsin B)/Ki(calpain)<30)
4 | NC(=O)C(=O)C(Cc1ccccc1)NC(=O)c1cccnc1-n1ccc(-c2cccs2)n1 (stereo not shown) [Example 55, N-(3-Amino-1-benzyl-2,3-dioxopropyl)-2-[3-(2-thienyl)-1H-pyrazol-1-yl]nicotinamide] | + (10≦Ki(cathepsin K)/Ki(calpain)<30) | ≤ 40 nM | ++ (Ki(cathepsin S)/Ki(calpain) ratio of ≧100) | ++ (Ki(cathepsin L)/Ki(calpain) ratio of ≧50) | + (10≦Ki(cathepsin B)/Ki(calpain)<30)
5 | NC(=O)C(=O)C(Cc1ccccc1)NC(=O)c1cccnc1-n1cc(Cl)c(-c2ccc(F)cc2)n1 (stereo not shown) [Example 184, N-[3-Amino-2,3-dioxo-1-(phenylmethyl)propyl]-2-[4-chloro-3-(4-fluorophenyl)-1H-pyrazol-1-yl]pyridine-3-carboxamide] | + (10≦Ki(cathepsin K)/Ki(calpain)<30) | 40 to 100 nM | ++ (Ki(cathepsin S)/Ki(calpain) ratio of ≧100) | ++ (Ki(cathepsin L)/Ki(calpain) ratio of ≧50) | + (10≦Ki(cathepsin B)/Ki(calpain)<30)

Source: patent US7728012B2, “Carboxamide compounds and their use as calpain inhibitors” (Abbott GmbH & Co. KG, priority 2006, dated 2010)
